From paper PMC10426190 (Breast Cancer Research : BCR, 2023)

System: E2-induced (ER target) genes in MCF7
Test: Gene expression analysis by RNA-sequencing in MCF7 with E2 stimulation
Type: cell-based, human
Settings: MCF7; 1 nM E2 ± 1 μM compound, 24 h
Procedure: MCF7 were cultured in hormone deprivation media (with 10% charcoal-stripped FBS) for at least 3 days before assay. Trypsinized cells were seeded in a 12-well plate, stimulated with 1 nM β-estradiol (E2), and treated with/without 1 μM compounds for 24 h. Total RNA was extracted using the TRIzol reagent according to the manufacturer’s protocol. RNA purity and quantification were evaluated using the NanoDrop 2000 spectrophotometer (Thermo Scientific, USA). RNA integrity was assessed using the Agilent 2100 Bioanalyzer (Agilent Technologies, Santa Clara, CA, USA). Then the libraries were constructed using TruSeq Stranded mRNA LT Sample Prep Kit (Illumina, San Diego, CA, USA) according to the manufacturer’s instructions. The transcriptome sequencing and analysis were conducted by OE Biotech Co., Ltd. (Shanghai, China). The libraries were sequenced on an Illumina HiSeq X Ten platform and 150 bp paired-end reads were generated. […] Raw data (raw reads) of FASTq format were firstly processed using Trimmomatic and the low-quality reads were removed to obtain the clean reads. […] The clean reads were mapped to the human genome (GRCh38) using HISAT2 [27]. FPKM [28] of each gene was calculated using Cufflinks, and the read counts of each gene were obtained by HTSeqcount. Differential expression analysis was performed using the DESeq (2012) R package.
MCF7 with hormone-deprived pre-treatment were administrated ER ligands or not present with 1 nM E2 stimulation for 24 h incubation in a 12-well plate. Total mRNA was isolated from treated cells and sequenced on an Illumina HiSeq X Ten platform. FPKM of each gene was calculated using Cufflinks and Differential expression genes analysis by using the DESeq (2012) R package. […] T47D EFM-19 and HCC1500 cells were grown in RPMI media supplemented with 10% charcoal-stripped FBS for 14 days and then treated with ER antagonist (1 μM) or DMSO in the presence E2 (1nM) stimulation for 24 h before RNA isolation and gene expression analysis as described in methods. […] The uteruses were harvested 24 h after the final doses and stained by toluidine blue. Endometrial height was assessed from the basement membrane to the luminal border (scale bar in green lines: 200 μm), Arrows indicate the uterine epithelium (e).

## C[C@]12CC[C@@H]3c4ccc(O)cc4CC[C@H]3[C@@H]1CC[C@@H]2O [E2, β-estradiol]
  ACTG2 expression: 3.78 FPKM
  ADCY1 expression: 29.74 FPKM
  AGR3 expression: 24.59 FPKM
  AMZ1 expression: 3.24 FPKM
  ANLN expression: 47.32 FPKM
  ARHGAP36 expression: 3.84 FPKM
  ASCL1 expression: 5.48 FPKM
  ASF1B expression: 78.22 FPKM
  ASMTL-2 expression: 6.46 FPKM
  ATAD2 expression: 69.95 FPKM
  ATRNL1 expression: 0.42 FPKM
  AURKB expression: 43.03 FPKM
  BIRC5 expression: 50.28 FPKM
  BLM expression: 8.02 FPKM
  BMPER expression: 1.39 FPKM
  BRCA1 expression: 9.45 FPKM
  BRCA2 expression: 5.65 FPKM
  BRIP1 expression: 54.99 FPKM
  BUB1B expression: 18.35 FPKM
  C1orf226 expression: 13.05 FPKM
  C5AR2 expression: 3.18 FPKM
  CA2 expression: 184.51 FPKM
  CA12 expression: 52.56 FPKM
  CALCR expression: 6.65 FPKM
  CAV1 expression: 11.53 FPKM
  CCN5 expression: 50.43 FPKM
  CCNA2 expression: 35.91 FPKM
  CCNE2 expression: 17.15 FPKM
  CD99-2 expression: 8.67 FPKM
  CDC6 expression: 16.34 FPKM
  CDC25A expression: 7.21 FPKM
  CDC45 expression: 22.61 FPKM
  CDCA3 expression: 12.59 FPKM
  CDCA4 expression: 35.30 FPKM
  CDCA5 expression: 32.97 FPKM
  CDCA7 expression: 8.46 FPKM
  CDH26 expression: 1.84 FPKM
  CDK1 expression: 34.56 FPKM
  CDT1 expression: 51.94 FPKM
  CENPI expression: 6.53 FPKM
  CENPU expression: 12.95 FPKM
  CHAF1B expression: 5.21 FPKM
  CHEK1 expression: 5.59 FPKM
  CKS1B expression: 97.65 FPKM
  CLSPN expression: 5.95 FPKM
  COL12A1 expression: 4.88 FPKM
  CXCL12 expression: 18.59 FPKM
  DDIAS expression: 9.79 FPKM
  DHRSX-2 expression: 1.19 FPKM
  DKK1 expression: 65.08 FPKM
  DNA2 expression: 7.03 FPKM
  DPYSL5 expression: 1.59 FPKM
  DSCC1 expression: 15.71 FPKM
  DTL expression: 6.96 FPKM
  E2F1 expression: 27.20 FPKM
  E2F2 expression: 5.64 FPKM
  E2F7 expression: 9.64 FPKM
  E2F8 expression: 10.32 FPKM
  ELOVL2 expression: 16.88 FPKM
  EME1 expression: 10.05 FPKM
  ERCC6L expression: 4.70 FPKM
  ESCO2 expression: 7.26 FPKM
  ESPL1 expression: 17.48 FPKM
  EXO1 expression: 10.16 FPKM
  FAM20A expression: 2.20 FPKM
  FAM111B expression: 12.41 FPKM
  FANCA expression: 22.66 FPKM
  FANCD2 expression: 15.48 FPKM
  FANCI expression: 48.65 FPKM
  FEN1 expression: 69.25 FPKM
  FIGNL1 expression: 5.08 FPKM
  FKBP4 expression: 141.57 FPKM
  GATA4 expression: 0.17 FPKM
  GFRA1 expression: 93.16 FPKM
  GINS1 expression: 23.84 FPKM
  GINS2 expression: 36.18 FPKM
  GJA1 expression: 1.09 FPKM
  GLA expression: 91.41 FPKM
  GP1BB expression: 2.96 FPKM
  GPR68 expression: 2.46 FPKM
  GPRIN1 expression: 8.93 FPKM
  GREB1 expression: 60.67 FPKM
  H2AX expression: 195.62 FPKM
  HBB expression: 2.07 FPKM
  HELLS expression: 7.42 FPKM
  HEY2 expression: 5.27 FPKM
  HMGB2 expression: 247.66 FPKM
  IGFBP4 expression: 131.73 FPKM
  IGSF1 expression: 11.09 FPKM
  ITGA2B expression: 1.22 FPKM
  KIF11 expression: 25.57 FPKM
  KIF18B expression: 9.55 FPKM
  KIFC1 expression: 32.81 FPKM
  KLK11 expression: 14.79 FPKM
  KNL1 expression: 7.74 FPKM
  KNTC1 expression: 15.58 FPKM
  LHX2 expression: 3.63 FPKM
  LIG1 expression: 50.95 FPKM
  LMNB1 expression: 103.66 FPKM
  MAD2L1 expression: 15.82 FPKM
  MCM2 expression: 79.68 FPKM
  MCM3 expression: 73.54 FPKM
  MCM4 expression: 90.54 FPKM
  MCM5 expression: 31.11 FPKM
  MCM6 expression: 49.04 FPKM
  MCM7 expression: 195.09 FPKM
  MCM10 expression: 11.30 FPKM
  MELK expression: 23.52 FPKM
  MKI67 expression: 43.57 FPKM
  MYB expression: 14.56 FPKM
  MYBL1 expression: 7.63 FPKM
  MYBL2 expression: 105.97 FPKM
  NCAPG2 expression: 42.44 FPKM
  NCAPG expression: 16.64 FPKM
  NPY1R expression: 21.66 FPKM
  ORC1 expression: 9.75 FPKM
  ORC6 expression: 17.34 FPKM
  PAQR4 expression: 27.39 FPKM
  PBK expression: 34.81 FPKM
  PCLAF expression: 64.57 FPKM
  PCNA expression: 139.06 FPKM
  PDZK1 expression: 5.01 FPKM
  PGR expression: 8.19 FPKM
  PKIB expression: 60.35 FPKM
  PKMYT1 expression: 41.08 FPKM
  POLA1 expression: 6.08 FPKM
  POLA2 expression: 14.49 FPKM
  POLD1 expression: 24.97 FPKM
  POLE2 expression: 6.15 FPKM
  POLE expression: 25.41 FPKM
  POLQ expression: 6.41 FPKM
  PRIM1 expression: 28.80 FPKM
  PRSS23 expression: 215.68 FPKM
  RAB31 expression: 21.61 FPKM
  RAD51AP1 expression: 13.82 FPKM
  RAD51 expression: 9.69 FPKM
  RAD54L expression: 12.35 FPKM
  RAMP3 expression: 13.53 FPKM
  RAPGEFL1 expression: 7.70 FPKM
  RBL1 expression: 5.83 FPKM
  RECQL4 expression: 32.15 FPKM
  RERG expression: 8.59 FPKM
  RET expression: 10.12 FPKM
  RFC2 expression: 36.71 FPKM
  RFC3 expression: 9.92 FPKM
  RFC4 expression: 27.17 FPKM
  RNASEH2A expression: 63.93 FPKM
  RRM1 expression: 40.40 FPKM
  RRM2 expression: 98.16 FPKM
  RUBCNL expression: 1.40 FPKM
  SDK2 expression: 1.00 FPKM
  SFXN2 expression: 31.80 FPKM
  SHCBP1 expression: 7.21 FPKM
  SKA3 expression: 14.05 FPKM
  SLC6A14 expression: 33.54 FPKM
  SMC2 expression: 14.75 FPKM
  SPC24 expression: 17.07 FPKM
  SPC25 expression: 16.49 FPKM
  STC2 expression: 134.11 FPKM
  TACC3 expression: 40.66 FPKM
  TCF19 expression: 21.19 FPKM
  TCOF1 expression: 21.81 FPKM
  TGM2 expression: 1.78 FPKM
  TICRR expression: 10.96 FPKM
  TK1 expression: 126.85 FPKM
  TMEM26 expression: 4.29 FPKM
  TMEM164 expression: 18.93 FPKM
  TONSL expression: 21.56 FPKM
  TOP2A expression: 69.34 FPKM
  TP73 expression: 3.93 FPKM
  TRIP13 expression: 21.48 FPKM
  TUBA1B expression: 1112.26 FPKM
  TUBB expression: 568.06 FPKM
  TYMS expression: 74.96 FPKM
  UBE2C expression: 67.26 FPKM
  UBE2T expression: 108.61 FPKM
  UHRF1 expression: 26.62 FPKM
  UNG expression: 64.43 FPKM
  WDHD1 expression: 10.21 FPKM
  WDR62 expression: 15.52 FPKM
  WDR76 expression: 5.46 FPKM
  XRCC2 expression: 7.64 FPKM
  XRCC3 expression: 19.64 FPKM
  ZGRF1 expression: 3.51 FPKM
  ZNF367 expression: 15.85 FPKM
